Experimental data as given in patent publication US8637237B2, “Methods, compositions, and systems for the identification of species-specific or developmental stage-specific insecticides” (The University of North Carolina at Greensboro, priority 2003, dated 2014).

Biological target: T1, EcRB1/USP (Drosophila melanogaster, UniProt P34021)
T1 construct: The plasmid encodes a version of EcRB1 that includes 878 amino acids, and deletes the F domain; expressed in transfected cells; host or cells: CHO
T1 sequence (P34021 1-878): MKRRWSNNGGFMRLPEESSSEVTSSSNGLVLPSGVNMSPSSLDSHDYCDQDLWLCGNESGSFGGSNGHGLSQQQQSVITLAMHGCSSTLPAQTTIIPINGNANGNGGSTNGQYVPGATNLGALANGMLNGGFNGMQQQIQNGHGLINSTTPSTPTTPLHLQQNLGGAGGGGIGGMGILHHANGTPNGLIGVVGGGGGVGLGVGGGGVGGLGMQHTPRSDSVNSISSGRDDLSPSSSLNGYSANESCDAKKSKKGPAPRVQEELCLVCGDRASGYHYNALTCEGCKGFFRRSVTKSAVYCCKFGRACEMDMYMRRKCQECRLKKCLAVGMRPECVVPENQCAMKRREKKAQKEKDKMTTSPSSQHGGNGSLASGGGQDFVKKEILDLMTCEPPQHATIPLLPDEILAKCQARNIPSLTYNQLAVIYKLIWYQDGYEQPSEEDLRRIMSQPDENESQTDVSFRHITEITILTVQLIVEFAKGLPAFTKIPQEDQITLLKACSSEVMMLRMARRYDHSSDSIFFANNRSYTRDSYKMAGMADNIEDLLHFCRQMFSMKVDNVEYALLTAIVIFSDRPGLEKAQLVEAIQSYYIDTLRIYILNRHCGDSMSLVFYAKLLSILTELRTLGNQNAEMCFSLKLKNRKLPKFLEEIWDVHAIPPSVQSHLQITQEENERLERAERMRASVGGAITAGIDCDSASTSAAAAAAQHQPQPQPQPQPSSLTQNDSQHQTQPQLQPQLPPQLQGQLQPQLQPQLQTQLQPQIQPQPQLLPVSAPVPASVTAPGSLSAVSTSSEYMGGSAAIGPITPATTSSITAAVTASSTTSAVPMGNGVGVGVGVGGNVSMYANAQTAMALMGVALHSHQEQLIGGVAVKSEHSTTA
T1 sequence (O76202 192-472 partner): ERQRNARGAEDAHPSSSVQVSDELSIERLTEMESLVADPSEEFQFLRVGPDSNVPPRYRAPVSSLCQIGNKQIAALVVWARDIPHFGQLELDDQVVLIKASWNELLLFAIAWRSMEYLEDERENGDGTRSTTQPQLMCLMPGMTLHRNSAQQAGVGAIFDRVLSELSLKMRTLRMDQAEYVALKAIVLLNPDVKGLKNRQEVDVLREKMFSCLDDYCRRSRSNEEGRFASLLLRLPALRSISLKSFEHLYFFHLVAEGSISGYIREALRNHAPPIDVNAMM
Test: EcRB1 isoform with USP (VP16CfUSP), (EcRE)5-ΔMTV-LUC in CHO cells
Type: cell-based
Experimental: These experiments employed a mammalian cell culture system using Chinese hamster ovary cells (CHO) to evaluate the transcriptional function of Drosophila melanogaster EcR and USP using methods described previously (U.S. Patent Application Publication No: 2005/0049230; Henrich et al, 2003). Cells were seeded in 6-well polypropylene culture plates (Falcon) with 10^5 cells per well on the day prior to transfection. Transfection was subsequently performed using either calcium phosphate (Kitareewan et al., 1996, Mol. Biol. Cell, 7:1153-1196) or a GenePorter reagent (Gene Therapy Systems, Inc; San Diego, Calif.) following manufacturer's protocols. Each well received 1.25 μg of (EcRE)5-ΔMTV-CAT (five copies of the hsp27 EcRE inserted into an mouse mammary tumor virus (MTV) promoter upstream of the chloramphenicol acetyltransferase (CAT) gene) or (EcRE)5-ΔMTV-LUC (the same promoter attached to firefly luciferase), 1.25 μg of pCH111 (SV40 early promoter linked to the β-galactosidase gene) to normalize CAT activity, and 0.25 μg of each expression plasmid (EcR, FXR, RXR, USP) that was tested. The cells were incubated with plasmid DNA for seven hours and then washed with 1×PBS. Muristerone A (murA; Alexis Biochemicals) or 20-hydroxyecdysone (20E; Sigma) dissolved in ethanol to a concentration of 10 mM was diluted as necessary to the final assay concentration (FAC) in 2 ml of fresh incubation medium that was then applied to the cells. Similarly, JHIII (Sigma) was dissolved in dimethyl sulfoxide (DMSO) to a concentration of […] and diluted into the incubation medium to its final assay concentration (20, 40, 80, 160 μM). […] A corresponding volume of ethanol and DMSO were added to control cells for all experiments. For all experiments, the cells were allowed to incubate with the medium for 24 hours before collection and cell lysates were prepared by described methods (Kitareewan et al., 1996). Both β-galactosidase and CAT reporter activity were measured based on previously used methods (Kitareewan et al, 1996). Luciferase assays using luciferrin followed the specifications of the manufacturer.
Transcriptional activity, measured as ^14C-chloramphenicol counts (for measuring CAT activity) or relative luciferase activity (RLU) was quantified for each cell lysate. The counts were then normalized by adjusting for differences in β-galactosidase activity, since β-galactosidase expression is controlled by a constitutive promoter and provides an estimate of cell mass. Data were normalized as fold-induction based on differences in reporter gene activity between hormonally treated and control cells.

CC(C)(O)CC[C@@H](O)[C@](C)(O)[C@H]1CC[C@@]2(O)C3=CC(=O)[C@@H]4C[C@@H](O)[C@@H](O)C[C@]4(C)[C@H]3CC[C@]12C [20E, 20-hydroxyecdysone]
transcriptional response to 20E (EcRB1 + VP16CfUSP, 10 μM 20E): consistent and discernible transcriptional response
20E (inducibility) (EcRB1/USP, 10 μM 20E): + ((+) designates a change in transcriptional level that exceeds 2.5-fold)

COC(=O)/C=C(\C)CC/C=C(\C)CC[C@H]1OC1(C)C [JHIII, juvenile hormone III]
potentiation of murA response by JHIII (EcRB1 + VP16CfUSP, 80 μM JHIII with 0.1 μM murA): potentiated
MurA + JHIII (JHIII potentiation) (EcRB1/USP, 0.1 μM murA + 80 μM JHIII): + ((+) indicates observed potentiation that exceeds 2-fold above the levels observed with ecdysteroid alone)

CC(C)CC[C@@H](O)[C@](C)(O)[C@H]1CC[C@@]2(O)C3=CC(=O)[C@]4(O)C[C@@H](O)[C@@H](O)C[C@]4(C)[C@H]3[C@H](O)C[C@]12C [murA, muristerone A]
induction by murA (EcRB1 + VP16CfUSP, 1 μM murA): 30-40 fold
MurA (inducibility) (EcRB1/USP, 0.1 μM murA): + ((+) designates a change in transcriptional level that exceeds 2.5-fold)
